Molecules are shown by their SMILES. Like-named read-outs stand apart in the source and are kept apart here.

Drawing on patent publication US20260258035A1, “FIVE-MEMBERED AND SIX-MEMBERED NITROGEN-CONTAINING COMPOUND, AND INTERMEDIATE, PREPARATION METHOD AND USE THEREOF” (HANGZHOU SYNRX THERAPEUTICS BIOMEDICAL TECHNOLOGY CO., LTD., priority 2022, published 2026), this text covers IC50 for 22 compounds.

The subject of one experiment is HCC1806. The experiment in a line: Cell viability assay (CellTiter-Glo). The format is cell-based, Human. As to conditions: HCC1806, 7 days, CellTiter-Glo, read-out: IC50 (nM) in cell viability assay.
In another experiment the target is PARG (Homo sapiens, UniProt Q86W56). Briefly: Biochemical assay (PARG, TFMU-ADPr substrate). As to conditions: PARG, TFMU-ADPr substrate.
Sequence of PARG (Q86W56 whole entry): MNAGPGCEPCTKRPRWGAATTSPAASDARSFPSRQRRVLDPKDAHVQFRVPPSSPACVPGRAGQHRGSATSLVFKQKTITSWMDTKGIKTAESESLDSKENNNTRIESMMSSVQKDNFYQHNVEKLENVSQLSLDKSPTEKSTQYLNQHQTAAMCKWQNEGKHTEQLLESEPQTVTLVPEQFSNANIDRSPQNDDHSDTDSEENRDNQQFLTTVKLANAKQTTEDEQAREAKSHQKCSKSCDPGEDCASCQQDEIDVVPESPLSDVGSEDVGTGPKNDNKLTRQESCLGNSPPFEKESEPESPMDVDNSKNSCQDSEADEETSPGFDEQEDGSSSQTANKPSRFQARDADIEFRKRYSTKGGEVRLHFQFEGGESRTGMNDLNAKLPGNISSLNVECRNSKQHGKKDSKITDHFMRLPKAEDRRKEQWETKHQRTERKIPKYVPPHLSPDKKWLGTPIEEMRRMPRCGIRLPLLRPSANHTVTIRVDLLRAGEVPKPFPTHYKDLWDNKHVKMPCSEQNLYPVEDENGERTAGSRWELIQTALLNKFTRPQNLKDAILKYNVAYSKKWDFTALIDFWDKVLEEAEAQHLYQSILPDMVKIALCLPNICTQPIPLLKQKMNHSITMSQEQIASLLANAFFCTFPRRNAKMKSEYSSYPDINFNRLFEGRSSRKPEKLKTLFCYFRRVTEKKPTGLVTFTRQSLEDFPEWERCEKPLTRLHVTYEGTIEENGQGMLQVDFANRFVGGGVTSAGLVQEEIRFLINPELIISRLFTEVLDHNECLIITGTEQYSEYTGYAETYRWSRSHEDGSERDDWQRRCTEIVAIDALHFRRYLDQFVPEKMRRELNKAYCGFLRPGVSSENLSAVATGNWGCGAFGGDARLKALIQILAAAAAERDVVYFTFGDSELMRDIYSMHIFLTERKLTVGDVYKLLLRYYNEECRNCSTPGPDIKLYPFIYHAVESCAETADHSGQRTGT

For orientation: IC50 means the concentration that gives 50% inhibition. For `COC1(C(=O)N2CCN(c3cc(S(=O)(=O)NC4(C)CC4)cn4c(-c5nnc(C(F)(F)F)s5)nc(C#N)c34)CC2)CC1` [Example 199, 1-cyano-8-(4-(1-methoxycyclopropane-1-carbonyl)piperazin-1-yl)-N-(1-methylcyclopropyl)-3-(5-(trifluoromethyl)-1,3,4-thiadiazol-2-yl)imidazo[1,5-a]pyridine-6-sulfonamide], the IC50 amounted to 11.5 nM in the experiment on HCC1806 (Homo sapiens, HCC1806, 168 h) and 0.34 nM at PARG.

Turning to `N#CC1(NS(=O)(=O)c2cc(N3CCN(C(=O)c4ccno4)CC3)c3cnc(-c4nnc(C(F)(F)F)s4)n3c2)CC1` [Example 255, N-(1-cyanocyclopropyl)-8-(4-(isoxazole-5-carbonyl)piperazin-1-yl)-3-(5-(trifluoromethyl)-1,3,4-thiadiazol-2-yl)imidazo[1,5-a]pyridine-6-sulfonamide], the IC50 in the experiment with HCC1806 (Homo sapiens, HCC1806, 168 h) worked out at 420 nM; against PARG, 17.4 nM.

As to `CC1(NS(=O)(=O)c2cc(N3CCN(C(=O)C4CC(=O)N4)CC3)c3cnc(-c4nnc(C(F)(F)F)s4)n3c2)CC1` (centres unmarked) [Example 343, N-(1-methylcyclopropyl)-8-(4-(4-oxoazetidine-2-carbonyl)piperazin-1-yl)-3-(5-(trifluoromethyl)-1,3,4-thiadiazol-2-yl)imidazo[1,5-a]pyridine-6-sulfonamide], the IC50 in the experiment with HCC1806 (Homo sapiens, HCC1806, 168 h) came out at 852 nM; on PARG, 5.41 nM.

Take `CCC(=O)C1CCN(c2cc(S(=O)(=O)NC3(C#N)CC3)cn3c(-c4nnc(C(F)(F)F)s4)ncc23)CC1` [Example 258, N-(1-cyanocyclopropyl)-8-(4-propionylpiperidin-1-yl)-3-(5-(trifluoromethyl)-1,3,4-thiadiazol-2-yl)imidazo[1,5-a]pyridine-6-sulfonamide]: the IC50 in the experiment with HCC1806 (Homo sapiens, HCC1806, 168 h) is 2830 nM; against PARG, 550 nM.

Take `CN(C)CCN(C)C(=O)N1CCN(c2cc(S(=O)(=O)NC3(C)COC3)cn3c(-c4nnc(C(F)(F)F)s4)ncc23)CC1` [Example 185, N-(2-(dimethylamino)ethyl)-N-methyl-4-(6-(N-(3-methyloxetan-3-yl)sulfamoyl)-3-(5-(trifluoromethyl)-1,3,4-thiadiazol-2-yl)imidazo[1,5-a]pyridin-8-yl)piperazine-1-carboxamide]: the IC50 with HCC1806 (Homo sapiens, HCC1806, 168 h) is 797 nM; against PARG, 4.58 nM.

For the compound `C[C@H]1CN(c2cc(S(=O)(=O)NC3(C)COC3)cn3c(-c4nnc(C(F)F)s4)ncc23)C[C@H](CN(C)C)O1` [Example 398, 3-(5-(difluoromethyl)-1,3,4-thiadiazol-2-yl)-8-((2S,6S)-2-((dimethylamino)methyl)-6-methylmorpholino)-N-(3-methyloxetan-3-yl)imidazo[1,5-a]pyridine-6-sulfonamide], the IC50 in the experiment with HCC1806 (Homo sapiens, HCC1806, 168 h) is 992 nM; at PARG it was 27.5 nM.

For `N#CC1(NS(=O)(=O)c2cc(N3CCN(C(=O)[C@@H]4CCCO4)CC3)c3cnc(-c4nnc(C(F)(F)F)s4)n3c2)CC1` [Example 301, (S)-N-(1-cyanocyclopropyl)-8-(4-(tetrahydrofuran-2-carbonyl)piperazin-1-yl)-3-(5-(trifluoromethyl)-1,3,4-thiadiazol-2-yl)imidazo[1,5-a]pyridine-6-sulfonamide], the IC50 came to 436 nM in the experiment on HCC1806 (Homo sapiens, HCC1806, 168 h) and 50.1 nM against PARG.

In the case of `N#CC1(NS(=O)(=O)c2cc(N3CC[C@@H](O)C3)c3cnc(-c4nnc(C(F)(F)F)s4)n3c2)CC1` [Example 230, (R)-N-(1-cyanocyclopropyl)-8-(3-hydroxypyrrolidin-1-yl)-3-(5-(trifluoromethyl)-1,3,4-thiadiazol-2-yl)imidazo[1,5-a]pyridine-6-sulfonamide], the IC50 with HCC1806 (Homo sapiens, HCC1806, 168 h) amounted to 8000 nM; on PARG, 120 nM.

Regarding `CC(=O)N1CC=C(c2cc(S(=O)(=O)NC3(C#N)CC3)cn3c(-c4nnc(C(F)(F)F)s4)ncc23)CC1` [Example 370, 8-(1-acetyl-1,2,3,6-tetrahydropyridin-4-yl)-N-(1-cyanocyclopropyl)-3-(5-(trifluoromethyl)-1,3,4-thiadiazol-2-yl)imidazo[1,5-a]pyridine-6-sulfonamide], the IC50 is 240 nM in the experiment on HCC1806 (Homo sapiens, HCC1806, 168 h) and 41.7 nM against PARG.

Regarding `N#CC1(NS(=O)(=O)c2cc(N3CCN(C(=O)[C@H]4CCNC4)CC3)c3cnc(-c4nnc(C(F)(F)F)s4)n3c2)CC1` [Example 272, (S)-N-(1-cyanocyclopropyl)-8-(4-(pyrrolidine-3-carbonyl)piperazin-1-yl)-3-(5-(trifluoromethyl)-1,3,4-thiadiazol-2-yl)imidazo[1,5-a]pyridine-6-sulfonamide], the IC50 was 5410 nM in the experiment with HCC1806 (Homo sapiens, HCC1806, 168 h) and 7.24 nM against PARG.

As for `COC1(C(=O)N2CCN(c3cc(S(=O)(=O)NC4(C)CC4)cn4c(-c5nnc(C(F)F)s5)ncc34)C[C@H]2C)CC1` [Example 197, (R)-3-(5-(difluoromethyl)-1,3,4-thiadiazol-2-yl)-8-(4-(1-methoxycyclopropane-1-carbonyl)-3-methylpiperazin-1-yl)-N-(1-methylcyclopropyl)imidazo[1,5-a]pyridine-6-sulfonamide], the half-maximal inhibitory concentration (IC50) stood at 6.58 nM in the experiment with HCC1806 (Homo sapiens, HCC1806, 168 h) and 0.19 nM against PARG.

On to `COc1ccc(C(=O)/C=C/C(=O)N2CCN(c3cc(S(=O)(=O)NC4(C#N)CC4)cn4c(-c5nnc(C(F)(F)F)s5)ncc34)CC2)cc1` [Example 211, (E)-N-(1-cyanocyclopropyl)-8-(4-(4-(4-methoxyphenyl)-4-oxobut-2-enoyl)piperazin-1-yl)-3-(5-(trifluoromethyl)-1,3,4-thiadiazol-2-yl)imidazo[1,5-a]pyridine-6-sulfonamide], for which the IC50 was 222 nM in the experiment with HCC1806 (Homo sapiens, HCC1806, 168 h) and 209 nM against PARG.

Consider `N#CC1(NS(=O)(=O)c2cc(N3CCN(C(=O)CCC(=O)O)CC3)c3cnc(-c4nnc(C(F)(F)F)s4)n3c2)CC1` [Example 253, 4-(4-(6-(N-(1-cyanocyclopropyl)sulfamoyl)-3-(5-(trifluoromethyl)-1,3,4-thiadiazol-2-yl)imidazo[1,5-a]pyridin-8-yl)piperazin-1-yl)-4-oxobutanoic acid], for which the IC50 is 1000 nM with HCC1806 (Homo sapiens, HCC1806, 168 h) and 57.5 nM against PARG.

For the compound `CC(C)(F)C(=O)N1CCN(c2cc(S(=O)(=O)NC3(C#N)CC3)cn3c(-c4nnc(C(F)(F)F)s4)ncc23)CC1` [Example 224, N-(1-cyanocyclopropyl)-8-(4-(2-fluoro-2-methylpropanoyl)piperazin-1-yl)-3-(5-(trifluoromethyl)-1,3,4-thiadiazol-2-yl)imidazo[1,5-a]pyridine-6-sulfonamide], the IC50 was 1020 nM in the experiment with HCC1806 (Homo sapiens, HCC1806, 168 h) and 13.8 nM against PARG.

Regarding `CC1(NS(=O)(=O)c2cc(N3CCN(C(=O)[C@H]4C[C@H](F)CN4)CC3)c3cnc(-c4nnc(C(F)(F)F)s4)n3c2)CC1` [Example 323, 8-(4-((2R,4S)-4-fluoropyrrolidine-2-carbonyl)piperazin-1-yl)-N-(1-methylcyclopropyl)-3-(5-(trifluoromethyl)-1,3,4-thiadiazol-2-yl)imidazo[1,5-a]pyridine-6-sulfonamide], the IC50 was 181 nM in the experiment with HCC1806 (Homo sapiens, HCC1806, 168 h) and 5.41 nM against PARG.

Take `CC1(NS(=O)(=O)c2cc(C3=CCN(S(C)(=O)=O)CC3)c3cnc(-c4nnc(C(F)(F)F)s4)n3c2)CC1` [Example 377, N-(1-methylcyclopropyl)-8-(1-(methylsulfonyl)-1,2,3,6-tetrahydropyridin-4-yl)-3-(5-(trifluoromethyl)-1,3,4-thiadiazol-2-yl)imidazo[1,5-a]pyridine-6-sulfonamide]: the IC50 in the experiment with HCC1806 (Homo sapiens, HCC1806, 168 h) was 60 nM; against PARG it was 1.41 nM.

On to `N#CC1(NS(=O)(=O)c2cc(N3CCN(C(=O)C4CCO4)CC3)c3cnc(-c4nnc(C(F)(F)F)s4)n3c2)CC1` (centres unmarked) [Example 300, N-(1-cyanocyclopropyl)-8-(4-(oxetane-2-carbonyl)piperazin-1-yl)-3-(5-(trifluoromethyl)-1,3,4-thiadiazol-2-yl)imidazo[1,5-a]pyridine-6-sulfonamide], for which the values for the half-inhibitory concentration (IC50) in the experiment on HCC1806 and on PARG were 403 nM and 31.6 nM, respectively.

As to `N#CC1(NS(=O)(=O)c2cc(C3CCN(C(=O)C4(O)CC4)CC3)c3cnc(-c4nnc(C(F)(F)F)s4)n3c2)CC1` [Example 372, N-(1-cyanocyclopropyl)-8-(1-(1-hydroxycyclopropane-1-carbonyl)piperidin-4-yl)-3-(5-(trifluoromethyl)-1,3,4-thiadiazol-2-yl)imidazo[1,5-a]pyridine-6-sulfonamide], the IC50 in the experiment on HCC1806 (Homo sapiens, HCC1806, 168 h) stood at 580 nM; on PARG it was 3.8 nM.

For `N#CC1(NS(=O)(=O)c2cc(N3CCNC(=O)C3)c3cnc(-c4nnc(C(F)(F)F)s4)n3c2)CC1` [Example 248, N-(1-cyanocyclopropyl)-8-(3-oxopiperazin-1-yl)-3-(5-(trifluoromethyl)-1,3,4-thiadiazol-2-yl)imidazo[1,5-a]pyridine-6-sulfonamide], the IC50 in the experiment on HCC1806 (Homo sapiens, HCC1806, 168 h) was found to be 6440 nM; at PARG, 692 nM.

`CC(=O)N1CCN(c2cc(S(=O)(=O)NC3(C#N)CC3)cn3c(-c4nnc(C(F)(F)F)s4)ncc23)CC1` [Example 173, 8-(4-acetylpiperazin-1-yl)-N-(1-cyanocyclopropyl)-3-(5-(trifluoromethyl)-1,3,4-thiadiazol-2-yl)imidazo[1,5-a]pyridine-6-sulfonamide]: the IC50 worked out at 400 nM in the experiment on HCC1806 (Homo sapiens, HCC1806, 168 h) and 50.1 nM against PARG.

As to `CO[C@H]1C[C@H](C(=O)N2CCN(c3cc(S(=O)(=O)NC4(C)CC4)cn4c(-c5nnc(C(F)(F)F)s5)ncc34)CC2)C1` [Example 290, 8-(4-((1r,3r)-3-methoxycyclobutane-1-carbonyl)piperazin-1-yl)-N-(1-methylcyclopropyl)-3-(5-(trifluoromethyl)-1,3,4-thiadiazol-2-yl)imidazo[1,5-a]pyridine-6-sulfonamide], the IC50 with HCC1806 (Homo sapiens, HCC1806, 168 h) came out at 151 nM; on PARG, 14.5 nM.

In the case of `CC1(NS(=O)(=O)c2cc(N3CCN(C(=O)C4(OCC(=O)O)CC4)CC3)c3cnc(-c4nnc(C(F)F)s4)n3c2)CC1` [Example 382, 2-(1-(4-(3-(5-(difluoromethyl)-1,3,4-thiadiazol-2-yl)-6-(N-(1-methylcyclopropyl)sulfamoyl)imidazo[1,5-a]pyridin-8-yl)piperazine-1-carbonyl)cyclopropoxy)acetic acid], the IC50 worked out at 828 nM with HCC1806 (Homo sapiens, HCC1806, 168 h) and 6.55 nM on PARG.
